From patent US9643957B2, “Heterocyclic compounds having cholesterol 24-hydroxylase activity” (TAKEDA PHARMACEUTICAL COMPANY LIMITED, priority 2012, dated 2017)

Molecular target: T1, human CH24H (Homo sapiens, UniProt Q9Y6A2)
T1 construct: Using Full-Length Mammalian Gene Collection No. 4819975 (Invitrogen) as a template; made in house; host or cells: FreeStyle 293-F cells, transient transfection with pcDNA3.1(+)/hCH24H; lysate supernatant, not purified
Experiment: Measurement of CH24H inhibitory activity (24-HC produced from [14C] cholesterol by human CH24H lysate)
Assay type: biochemical
Settings: 1 μM test compound, [14C] cholesterol 15 μM, 37° C. for 5 hr, read-out: Inhibitory Rate in 1 μM (%)
Procedure: The expression of human CH24H was performed using FreeStyle 293 Expression System (Invitrogen). […] After transfection, the cells were cultured at 37° C., 8% CO2 with shaking at 125 rpm for 2 days. The cells were collected by centrifugation, and suspended in a suspension buffer (100 mM potassium phosphate (pH 7.4), 0.1 mM EDTA, 1 mM DTT, 20% Glycerol). The suspended product was disrupted by a polytron homogenizer (manufactured by Kinematica), and centrifuged at 9000×g for 10 min, and the supernatant was collected. The collected supernatant was cryopreserved (−80° C.) as a human CH24H lysate standard product.
For the measurement of CH24H inhibitory activity, using the human CH24H lysate prepared in Experimental Example 2, the amount of 24-HC produced from cholesterol by catalytic activity of CH24H was measured in the presence of a test compound, and compared with that measured in the absence of the test compound. That is, a test compound solution at various concentrations was mixed with a reaction buffer (50 mM potassium phosphate containing 0.1% BSA and Complete, EDTA-free, pH 7.4) and human CH24H lysate. Then, [^14C] cholesterol (53 mCi/mmol specific activity, 15 μM) was added, and CH24H reaction was performed at 37° C. for 5 hr. After completion of the reaction, a quenching solution consisting of chloroform/methanol/distilled water (2:2:1 v/v) was added, and the resulting 24-HC was extracted by shaking. The extract was applied to silica gel thin layer chromatography (ethyl acetate:toluene=4:6), and the obtained ^14C-24HC fraction was measured with BAS2500 (Fujifilm Corporation).
The inhibitory rate (%) was calculated from the ratio of radioactivity in the presence of a test compound relative to the radioactivity in the absence of the test compound.

T1 sequence (Q9Y6A2 whole entry): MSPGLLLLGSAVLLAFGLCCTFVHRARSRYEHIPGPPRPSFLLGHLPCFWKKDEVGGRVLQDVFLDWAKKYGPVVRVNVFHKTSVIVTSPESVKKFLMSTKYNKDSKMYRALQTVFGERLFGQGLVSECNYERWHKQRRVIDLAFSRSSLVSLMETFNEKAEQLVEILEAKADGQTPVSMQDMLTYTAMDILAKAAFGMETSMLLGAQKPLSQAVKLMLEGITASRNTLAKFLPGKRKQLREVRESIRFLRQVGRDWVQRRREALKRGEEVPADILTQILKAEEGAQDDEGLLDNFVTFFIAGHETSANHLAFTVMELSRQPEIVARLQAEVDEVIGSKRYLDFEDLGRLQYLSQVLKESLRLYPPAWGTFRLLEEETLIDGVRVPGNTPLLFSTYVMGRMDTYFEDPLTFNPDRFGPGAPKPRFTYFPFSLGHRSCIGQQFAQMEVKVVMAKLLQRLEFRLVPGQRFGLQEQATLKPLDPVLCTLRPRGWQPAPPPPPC

| inhibition at 1 µM [%] | SMILES |
| --- | --- |
| 97 | Cc1cnn(-c2ccncc2N2CCC(C(=O)Nc3ccccc3)CC2)c1 [Example 73, 1-(4-(4-methyl-1H-pyrazol-1-yl)pyridin-3-yl)-N-phenylpiperidine-4-carboxamide] |
| 83 | O=C(C1CCN(c2cncnc2-c2ccc(F)cc2)CC1)N1CC[C@H](F)C1 [Example 286, (1-(4-(4-fluorophenyl)pyrimidin-5-yl)piperidin-4-yl) ((3S)-3-fluoropyrrolidin-1-yl)methanone] |
| 99 | CN(C(=O)C1CCN(c2cnccc2-n2cc(Cl)cn2)CC1)C1CCOCC1 [Example 54, 1-(4-(4-chloro-1H-pyrazol-1-yl)pyridin-3-yl)-N-methyl-N-(tetrahydro-2H-pyran-4-yl)piperidine-4-carboxamide] |
| 79 | CN(Cc1ccccc1)C(=O)N1CCN(c2cncnc2-c2ccccc2)CC1 [Example 298, N-benzyl-N-methyl-4-(4-phenylpyrimidin-5-yl)piperazine-1-carboxamide] |
| 89 | O=C(C1CCN(c2cnccc2-c2ccccn2)CC1)N1CCC(F)(F)C1 [Example 214, (1-(2,4′-bipyridin-3′-yl)piperidin-4-yl) (3,3-difluoropyrrolidin-1-yl)methanone] |
| 98 | Cc1nnc(-c2ccncc2N2CCC(C(=O)N3CCC[C@@H]3C#N)CC2)s1 [Example 87, (2R)-1-((1-(4-(5-methyl-1,3,4-thiadiazol-2-yl)pyridin-3-yl)piperidin-4-yl)carbonyl)pyrrolidine-2-carbonitrile] |
| 74 | CN(C)C(=O)C1CCN(c2cnccc2-n2cc(C#N)cn2)CC1 [Example 83, 1-(4-(4-cyano-1H-pyrazol-1-yl)pyridin-3-yl)-N,N-dimethylpiperidine-4-carboxamide] |
| 83 | Cc1cnn(-c2ccncc2N2CCC(C(=O)N3CC[C@H](F)C3)CC2)c1 [Example 282, ((3S)-3-fluoropyrrolidin-1-yl)(1-(4-(4-methyl-1H-pyrazol-1-yl)pyridin-3-yl)piperidin-4-yl)methanone] |
| 81 | CN(C(=O)C1CCN(c2cnccc2-n2cc(Cl)cn2)CC1)[C@H]1CCOC1 [Example 307, 1-(4-(4-chloro-1H-pyrazol-1-yl)pyridin-3-yl)-N-methyl-N-((3S)-tetrahydrofuran-3-yl)piperidine-4-carboxamide] |
| 86 | C[C@H]1CN(c2cncnc2-c2ccccc2)CCN1C(=O)CC1CC1 [Example 170, 2-cyclopropyl-1-((2S)-2-methyl-4-(4-phenylpyrimidin-5-yl)piperazin-1-yl)ethanone] |
| 83 | CO[C@@H]1CCN(C(=O)C2CCN(c3cnccc3-n3cc(Cl)cn3)CC2)C1 [Example 300, (1-(4-(4-chloro-1H-pyrazol-1-yl)pyridin-3-yl)piperidin-4-yl)((3R)-3-methoxypyrrolidin-1-yl)methanone] |
| 96 | O=C(C1CCN(c2cnccc2-n2cc(Br)cn2)CC1)N1CC(F)C1 [Example 319, (1-(4-(4-bromo-1H-pyrazol-1-yl)pyridin-3-yl)piperidin-4-yl) (3-fluoroazetidin-1-yl)methanone] |
| 97 | Cc1nnc(-c2ccncc2N2CCC(C(=O)N3CCC[C@]3(C)C#N)CC2)s1 [Example 128, (2R)-2-methyl-1-((1-(4-(5-methyl-1,3,4-thiadiazol-2-yl)pyridin-3-yl)piperidin-4-yl)carbonyl)pyrrolidine-2-carbonitrile] |
| 85 | NC(=O)[C@@H]1CC(F)(F)CN1C(=O)C1CCN(c2cnccc2-n2cc(Cl)cn2)CC1 [Example 117, 1-((1-(4-(4-chloro-1H-pyrazol-1-yl)pyridin-3-yl)piperidin-4-yl)carbonyl)-4,4-difluoro-L-prolinamide] |
| 97 | O=C(OCc1ccccc1)N1CCN(c2cncnc2-c2ccccc2)CC1 [Example 169, benzyl 4-(4-phenylpyrimidin-5-yl)piperazine-1-carboxylate] |
| 90 | N#C[C@H]1CCCN1C(=O)N1CCN(c2cncnc2-c2ccc(F)cc2)CC1 [Example 198, (2R)-1-((4-(4-(4-fluorophenyl)pyrimidin-5-yl)piperazin-1-yl)carbonyl)pyrrolidine-2-carbonitrile] |
| 89 | O=C(C1CCN(c2cncnc2-c2ccc(F)cc2)CC1)N1CC[C@@H](F)C1 [Example 287, (1-(4-(4-fluorophenyl)pyrimidin-5-yl)piperidin-4-yl)((3R)-3-fluoropyrrolidin-1-yl)methanone] |

| inhibition at 1 µM [%] | SMILES |
| --- | --- |
| 84 | Cc1cnn(-c2ccncc2N2CCN(C(=O)N(C)Cc3ccc(F)cc3)CC2)c1 [Example 297, N-(4-fluorobenzyl)-N-methyl-4-(4-(4-methyl-1H-pyrazol-1-yl)pyridin-3-yl)piperazine-1-carboxamide] |
| 84 | CO[C@H]1CCN(C(=O)C2CCN(c3cnccc3-n3cc(Cl)cn3)CC2)C1 [Example 299, (1-(4-(4-chloro-1H-pyrazol-1-yl)pyridin-3-yl)piperidin-4-yl)((3S)-3-methoxypyrrolidin-1-yl)methanone] |
| 82 | CN(C(=O)C1CCN(c2cncnc2-c2ccc(F)cc2)CC1)[C@@H]1CCOC1 [Example 310, 1-(4-(4-fluorophenyl)pyrimidin-5-yl)-N-methyl-N-((3R)-tetrahydrofuran-3-yl)piperidine-4-carboxamide] |
| 94 | Cc1cnn(-c2ccncc2N2CCN(C(=O)N(CCF)Cc3ccc(F)cc3)CC2)c1 [Example 315, N-(4-fluorobenzyl)-N-(2-fluoroethyl)-4-(4-(4-methyl-1H-pyrazol-1-yl)pyridin-3-yl)piperazine-1-carboxamide] |
| 97 | CC1(CNC(=O)C2CCN(c3cnccc3-n3cc(Cl)cn3)CC2)COC1 [Example 31, 1-(4-(4-chloro-1H-pyrazol-1-yl)pyridin-3-yl)-N-((3-methyloxetan-3-yl)methyl)piperidine-4-carboxamide] |
| 85 | CN(C)C(=O)C1CCN(c2cnccc2-c2nc3ccccc3s2)CC1 [Example 21, 1-(4-(1,3-benzothiazol-2-yl)pyridin-3-yl)-N,N-dimethylpiperidine-4-carboxamide] |
| 82 | Cc1cnn(-c2ccncc2N2CCC(C(=O)N(CCF)[C@@H]3CCOC3)CC2)c1 [Example 313, N-(2-fluoroethyl)-1-(4-(4-methyl-1H-pyrazol-1-yl)pyridin-3-yl)-N-((3R)-tetrahydrofuran-3-yl)piperidine-4-carboxamide] |
| 93 | O=C(C1CCN(c2cnccc2-n2cc(C3CC3)cn2)CC1)N1CC(F)C1 [Example 323, (1-(4-(4-cyclopropyl-1H-pyrazol-1-yl)pyridin-3-yl)piperidin-4-yl)(3-fluoroazetidin-1-yl)methanone] |
| 84 | O=C(C1CCN(c2cnccc2-n2cc(Cl)cn2)CC1)N1CC(F)C1 [Example 281, (1-(4-(4-chloro-1H-pyrazol-1-yl)pyridin-3-yl)piperidin-4-yl) (3-fluoroazetidin-1-yl)methanone] |
| 98 | CC1(C)CCCN1C(=O)C1CCN(c2cnccc2-n2cc(Cl)cn2)CC1 [Example 26, (1-(4-(4-chloro-1H-pyrazol-1-yl)pyridin-3-yl)piperidin-4-yl)(2,2-dimethylpyrrolidin-1-yl)methanone] |
| 85 | Cc1cnn(-c2ccncc2N2CCC(C(=O)N3CC[C@@H](F)C3)CC2)c1 [Example 283, ((3R)-3-fluoropyrrolidin-1-yl)(1-(4-(4-methyl-1H-pyrazol-1-yl)pyridin-3-yl)piperidin-4-yl)methanone] |
| 75 | O=C(C1CCN(c2cncnc2-c2ccc(F)cc2)CC1)N1CC(F)C1 [Example 278, (3-fluoroazetidin-1-yl)(1-(4-(4-fluorophenyl)pyrimidin-5-yl)piperidin-4-yl)methanone] |
| 86 | Cc1cnn(-c2ccncc2N2CCC(C(=O)N(C)C3CCOCC3)CC2)c1 [Example 296, N-methyl-1-(4-(4-methyl-1H-pyrazol-1-yl)pyridin-3-yl)-N-(tetrahydro-2H-pyran-4-yl)piperidine-4-carboxamide] |
| 96 | CN(C(=O)C1CCN(c2cnccc2-n2cc(Cl)cn2)CC1)C1CC1 [Example 58, 1-(4-(4-chloro-1H-pyrazol-1-yl)pyridin-3-yl)-N-cyclopropyl-N-methylpiperidine-4-carboxamide] |
| 97 | CC1CCCN1C(=O)C1CCN(c2cnccc2-n2cc(Cl)cn2)CC1 (stereo not drawn) [Example 25, (1-(4-(4-chloro-1H-pyrazol-1-yl)pyridin-3-yl)piperidin-4-yl)(2-methylpyrrolidin-1-yl)methanone] |
| 82 | O=C(C1CCN(c2cnccc2-n2cc(Cl)cn2)CC1)N1CC[C@@H](F)C1 [Example 285, (1-(4-(4-chloro-1H-pyrazol-1-yl)pyridin-3-yl)piperidin-4-yl)((3R)-3-fluoropyrrolidin-1-yl)methanone] |
